This note sets out measurements from patent publication US10407428B2, “Spiro-isoquinoline-1,4′-piperidine compounds having multimodal activity against pain” (ESTEVE PHARMACEUTICALS, S.A., priority 2014, dated 2019).

For the test, the system named is human σ1 receptor and human μ-opioid receptor. In words: Human σ1 receptor radioligand assay and human μ-opioid receptor radioligand assay (μ and σ1 dual binding). Also on record: key to μ and σ1 dual binding: +: Both Ki-μ and Ki-σ1>=500 nM; ++: One Ki<500 nM while the other Ki is >=500 nM; +++: Both Ki-μ and Ki-σ1<500 nM; ++++: Both Ki-μ and Ki-σ1<100 nM.
Where [1] appears, read: combined class for Ki-μ ([3H]-DAMGO, CHO-K1 membranes) and Ki-σ1 ([3H](+)-pentazocine, HEK-293 membranes).

Where two headings read alike, the source gives them in different places.

Consider `CCN(CC(C)C)C(=O)CN1CCC2(CC1)c1ccccc1CCN2C` [Example 104, N-ethyl-N-isobutyl-2-(2-methyl-3,4-dihydro-2H-spiro[isoquinoline-1,4′-piperidine]-1′-yl)acetamide], for which the “μ and σ1 dual binding” value was “++”.

Consider `CCCN(CC)C(=O)CN1CCC2(CC1)c1ccccc1CCN2C` [Example 105, N-ethyl-2-(2-methyl-3,4-dihydro-2H-spiro[isoquinoline-1,4′-piperidine]-1′-yl)-N-propylacetamide], for which the “μ and σ1 dual binding” value is given as “++”.

Usually Ki stands for a measure of affinity in units of concentration, obtained from inhibition or displacement. In turn, `CCN(C(=O)CN1CCC2(CC1)c1ccccc1CCN2C)C1CC1` [Example 106, N-cyclopropyl-N-ethyl-2-(2-methyl-3,4-dihydro-2H-spiro[isoquinoline-1,4′-piperidine]-1′-yl)acetamide] showed a Ki of less than 500 nM.

For `CCCN(C(=O)CN1CCC2(CC1)c1ccccc1CCN2C)C(C)C` [Example 107, N-isopropyl-2-(2-methyl-3,4-dihydro-2H-spiro[isoquinoline-1,4′-piperidine]-1′-yl)-N-propylacetamide], the “μ and σ1 dual binding” value is given as “++”.

Consider `COCCN(C(=O)CN1CCC2(CC1)c1ccccc1CCN2C)C(C)C` [Example 108, N-isopropyl-N-(2-methoxyethyl)-2-(2-methyl-3,4-dihydro-2H-spiro[isoquinoline-1,4′-piperidine]-1′-yl)acetamide], for which the “μ and σ1 dual binding” value was “++”.

On to `CCC(CC)N(CC)C(=O)CN1CCC2(CC1)c1ccccc1CCN2C` [Example 109, N-ethyl-2-(2-methyl-3,4-dihydro-2H-spiro[isoquinoline-1,4′-piperidine]-1′-yl)-N-(pentan-3-yl)acetamide], for which the “μ and σ1 dual binding” value is on record as “++”.

On to `CC(C)CN(C(=O)CN1CCC2(CC1)c1ccccc1CCN2C)C(C)C` [Example 110, N-isobutyl-N-isopropyl-2-(2-methyl-3,4-dihydro-2H-spiro[isoquinoline-1,4′-piperidine]-1′-yl)acetamide], for which, under setting [1], the Ki was not below 500 nM.

Take `CCC(CC)N(C)C(=O)CN1CCC2(CC1)c1ccccc1CCN2C` [Example 111, N-methyl-2-(2-methyl-3,4-dihydro-2H-spiro[isoquinoline-1,4′-piperidine]-1′-yl)-N-(pentan-3-yl)acetamide]: the Ki was less than 500 nM.

As for `CN(CC1CC1)C(=O)CN1CCC2(CC1)c1ccccc1CCN2C` [Example 112, N-(cyclopropylmethyl)-N-methyl-2-(2-methyl-3,4-dihydro-2H-spiro[isoquinoline-1,4′-piperidine]-1′-yl)acetamide], the Ki was less than 500 nM.

With `CN1CCc2ccccc2C12CCN(CC(O)c1ccncc1F)CC2` (stereo not shown) [Example 113, 1-(3-fluoropyridin-4-yl)-2-(2-methyl-3,4-dihydro-2H-spiro[isoquinoline-1,4′-piperidine]-1′-yl)ethanol], the inhibition constant (Ki) is less than 500 nM.

With `CC1CCN(C(=O)CN2CCC3(CC2)c2ccccc2CCN3C)CC1` [Example 114, 2-(2-Methyl-3,4-dihydro-2H-spiro[isoquinoline-1,4′-piperidine]-1′-yl)-1-(4-methylpiperidin-1-yl)ethanone], the inhibition constant Ki is less than 500 nM.

As to `C[C@@H]1CN(C(=O)CN2CCC3(CC2)c2ccccc2CCN3C)C[C@H](C)O1` [Example 115, 1-((2S,6R)-2,6-dimethylmorpholino)-2-(2-methyl-3,4-dihydro-2H-spiro[isoquinoline-1,4′-piperidine]-1′-yl)ethanone], the Ki under setting [1] was not below 500 nM.

Turning to `CN(Cc1ccccn1)C(=O)CN1CCC2(CC1)c1ccccc1CCN2C` [Example 116, N-methyl-2-(2-methyl-3,4-dihydro-2H-spiro[isoquinoline-1,4′-piperidine]-1′-yl)-N-(pyridin-2-ylmethyl)acetamide], the “μ and σ1 dual binding” value was “++”.

Turning to `CN1CCc2ccccc2C12CCN(CCc1cccc(N)c1)CC2` [Example 117, 3-[2-(2-Methyl-3,4-dihydro-2H-spiro[isoquinoline-1,4′-piperidin]-1′-yl)-ethyl]-phenylamine], the inhibition constant (Ki) was less than 100 nM.

Molecule `CN1CCc2ccccc2C12CCN(CCc1cccc(NS(C)(=O)=O)c1)CC2` [Example 118, N-(3-(2-(2-Methyl-3,4-dihydro-2H-spiro[isoquinoline-1,4′-piperidin]-1′-yl)ethyl)phenyl)methanesulfonamide] yielded an inhibition constant Ki of less than 100 nM.

Consider `CC(=O)Nc1cccc(CCN2CCC3(CC2)c2ccccc2CCN3C)c1` [Example 119, N-{3-[2-(2-Methyl-3,4-dihydro-2H-spiro[isoquinoline-1,4′-piperidin]-1′-yl)-ethyl]-phenyl}-acetamide], for which the Ki was less than 500 nM.

For the molecule `CN1CCc2ccccc2C12CCN(CC(O)c1ccccc1)CC2` (stereo not shown) [Example 120, 2-(2-Methyl-3,4-dihydro-2H-spiro[isoquinoline-1,4′-piperidin]-1′-yl)-1-phenyl-ethanol], the inhibitory constant (Ki) is less than 500 nM.

In turn, `CN1CCc2ccccc2C12CCN(CCc1ccncc1)CC2` [Example 121, 2-Methyl-1′-(2-(pyridin-4-yl)ethyl)-3,4-dihydro-2H-spiro[isoquinoline-1,4′-piperidine]] returned an inhibitory constant (Ki) of less than 500 nM.

`COCCN1CCc2ccccc2C12CCN(CCc1ccccc1)CC2` [Example 122, 2-(2-Methoxyethyl)-1′-phenethyl-3,4-dihydro-2H-spiro[isoquinoline-1,4′-piperidine]] yielded a Ki of less than 500 nM.

In turn, `OCCN1CCc2ccccc2C12CCN(CCc1ccccc1)CC2` [Example 123, 2-(1′-Phenethyl-3,4-dihydro-2H-spiro[isoquinoline-1,4′-piperidin]-2-yl)ethanol] displayed an inhibition constant (Ki) of less than 100 nM.

Turning to `COCCN1CCc2ccccc2C12CCN(CCc1cccnc1)CC2` [Example 124, 2-(2-Methoxyethyl)-1′-(2-(pyridin-3-yl)ethyl)-3,4-dihydro-2H-spiro[isoquinoline-1,4′-piperidine]], the inhibition constant Ki under setting [1] is not below 500 nM.

In the case of `OCCN1CCc2ccccc2C12CCN(CCc1cccnc1)CC2` [Example 125, 2-[1′-(2-Pyridin-3-yl-ethyl)-3,4-dihydro-spiro[isoquinoline-1,4′-piperidin]-2-yl]-ethanol], the Ki is less than 500 nM.

Consider `O=C(CN1CCC2(CC1)c1ccccc1CCN2CCO)N1CCCCC1` [Example 126, 2-(2-(2-Hydroxyethyl)-3,4-dihydro-2H-spiro[isoquinoline-1,4′-piperidine]-1′-yl)-1-(piperidin-1-yl)ethanone], for which the “μ and σ1 dual binding” value is “++”.

Turning to `OCCN1CCc2ccccc2C12CCN(CCc1cncc(F)c1)CC2` [Example 127, 2-(1′-(2-(5-fluoropyridin-3-yl)ethyl)-3,4-dihydro-2H-spiro[isoquinoline-1,4′-piperidin]-2-yl)etanol], the inhibition constant Ki is less than 500 nM.

`OCCN1CCc2ccccc2C12CCN(CCc1cncc(C(F)(F)F)c1)CC2` [Example 128, 2-(1′-(2-(5-(trifluoromethyl)pyridin-3-yl)ethyl)-3,4-dihydro-2H-spiro[isoquinoline-1,4′-piperidine]-2-yl)ethanol] came in with an inhibition constant (Ki) of less than 500 nM.

In the case of `OCCN1CCc2ccccc2C12CCN(CCc1ccncc1)CC2` [Example 129, 2-(1′-(2-(pyridin-4-yl)ethyl)-3,4-dihydro-2H-spiro[isoquinoline-1,4′-piperidine]-2-yl)ethanol], the “μ and σ1 dual binding” value is listed as “++”.

In the case of `OCCN1CCc2ccccc2C12CCN(CCc1ccncc1F)CC2` [Example 130, 2-(1′-(2-(3-Fluoropyridin-4-yl)ethyl)-3,4-dihydro-2H-spiro[isoquinoline-1,4′-piperidine]-2-yl)ethanol], the Ki was less than 500 nM.

Molecule `CN1CCc2cc(O)ccc2C12CCN(CCc1ccccc1)CC2` [Example 131, 2-Methyl-1′-phenethyl-3,4-dihydro-2H-spiro[isoquinoline-1,4′-piperidin]-6-ol] returned a Ki of less than 100 nM.

Regarding `O=C(N1CCc2ccccc2C12CCN(CCc1ccccc1)CC2)C(F)(F)F` [Example 132, 2,2,2-Trifluoro-1-(1′-phenethyl-3,4-dihydro-2H-spiro[isoquinoline-1,4′-piperidine]-2-yl)ethanone], the Ki under setting [1] was not below 500 nM.

For `FC(F)(F)CN1CCc2ccccc2C12CCN(CCc1ccccc1)CC2` [Example 133, 1′-Phenethyl-2-(2,2,2-trifluoroethyl)-3,4-dihydro-2H-spiro[isoquinoline-1,4′-piperidine]], the inhibition constant (Ki) was less than 100 nM.

`O=C(CN1CCC2(CC1)c1ccccc1CCN2CC(F)(F)F)N1CCOCC1` [Example 134, 1-Morpholino-2-(2-(2,2,2-trifluoroethyl)-3,4-dihydro-2H-spiro[isoquinoline-1,4′-piperidine]-1′-yl)ethanone]: the “μ and σ1 dual binding” value is “++”.

As for `O=C(CN1CCC2(CC1)c1ccccc1CCN2CC(F)(F)F)N1CCCCC1` [Example 135, 1-(piperidin-1-yl)-2-(2-(2,2,2-trifluoroethyl)-3,4-dihydro-2H-spiro[isoquinoline-1,4′-piperidine]-1′-yl)ethanone], the “μ and σ1 dual binding” value is given as “++”.

`FC(F)(F)CN1CCc2ccccc2C12CCN(CCc1ccncc1)CC2` [Example 136, 1′-(2-(pyridin-4-yl)ethyl)-2-(2,2,2-trifluoroethyl)-3,4-dihydro-2H-spiro[isoquinoline-1,4′-piperidine]]: the Ki was less than 500 nM.

The molecule `FC(F)(F)CN1CCc2ccccc2C12CCN(CCc1cccnc1)CC2` [Example 137, 1′-(2-(pyridin-3-yl)ethyl)-2-(2,2,2-trifluoroethyl)-3,4-dihydro-2H-spiro[isoquinoline-1,4′-piperidine]] registered an inhibitory constant (Ki) of less than 500 nM.

Turning to `CN1CC(C)(C)c2ccccc2C12CCN(CC(=O)N1CCCCC1)CC2` [Example 138, 1-(Piperidin-1-yl)-2-(2,4,4-trimethyl-3,4-dihydro-2H-spiro[isoquinoline-1,4′-piperidine]-1′-yl)ethanone], the Ki under setting [1] was not below 500 nM.

Molecule `CN1Cc2ccccc2C12CCN(CCc1ccccc1)CC2` [Example 140, 2-Methyl-1′-phenethylspiro[isoindoline-1,4′-piperidine]] yielded a Ki of less than 500 nM.

With `CN1Cc2ccccc2C12CCN(CC1CCOCC1)CC2` [Example 141, 2-Methyl-1′-((tetrahydro-2H-pyran-4-yl)methyl)spiro[isoindoline-1,4′-piperidine]], the “μ and σ1 dual binding” value is reported as “++”.
